Laboratory results taken from patent publication US20220119354A1, “DIAMINO-SUBSTITUTED PYRIDINES AND PYRIMIDINES AS HERBICIDES” (FMC Corporation, priority 2019, published 2022).

Assays:
Type in all cases: in vivo
kochia (Kochia scoparia) [1] = test: Test A postemergence, kochia; details: 0 to 100 scale
How it was run: (§1)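 Compound, in a non-phytotoxic solvent blend containing surfactant, is sprayed onto soil immediately after sowing or onto young plants (one- to two-leaf, 2–10 cm). After roughly 10 d under greenhouse conditions, injury is judged by eye relative to untreated plants on a 0–100 control scale.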

[2] = system: ragweed (common ragweed, Ambrosia elatior); test: Test A postemergence, ragweed; details: 0 to 100 scale
How it was run: as §1

[3] = system: wheat (Triticum aestivum); test: Test A postemergence, wheat; details: 0 to 100 scale
How it was run: as §1

[4] = system: barnyardgrass (Echinochloa crus-galli); test: Test B flooded paddy test, barnyardgrass; details: Flood, 250 g ai/ha, applied to paddy water, 2-leaf stage, visual evaluation after 13 to 15 d
How it was run: (§2)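 Rating: 0 = no effect, 100 = complete control, visual, relative to untreated plants. Conditions: 2-leaf stage, 3 cm flood kept constant, compound put directly into water, 13–15 d greenhouse.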

[5] = system: ducksalad (Heteranthera limosa); test: Test B flooded paddy test, ducksalad; details: Flood, 250 g ai/ha, applied to paddy water, 2-leaf stage, visual evaluation after 13 to 15 d
How it was run: as §2

rice (Oryza sativa) = test: Test B flooded paddy test, rice; details: Flood, 250 g ai/ha, applied to paddy water, 2-leaf stage, visual evaluation after 13 to 15 d
How it was run: as §2

[6] = system: galium (catchweed bedstraw, Galium aparine); test: Test A postemergence, galium; details: 0 to 100 scale
How it was run: as §1

kochia (Kochia scoparia) [7] = test: Test A preemergence, kochia; details: 0 to 100 scale
How it was run: as §1

[8] = system: foxtail, giant (Setaria faberii); test: Test A preemergence, giant foxtail; details: 0 to 100 scale
How it was run: as §1

[9] = system: barnyardgrass (Echinochloa crus-galli); test: Test A postemergence, barnyardgrass; details: 0 to 100 scale
How it was run: as §1

[10] = system: pigweed (Amaranthus retroflexus); test: Test A postemergence, pigweed; details: 0 to 100 scale
How it was run: as §1

[11] = system: ragweed (common ragweed, Ambrosia elatior); test: Test A preemergence, ragweed; details: 0 to 100 scale
How it was run: as §1

[12] = system: sedge, umbrella (small-flower umbrella sedge, Cyperus difformis); test: Test B flooded paddy test, umbrella sedge; details: Flood, 250 g ai/ha, applied to paddy water, 2-leaf stage, visual evaluation after 13 to 15 d
How it was run: as §2

[13] = system: blackgrass (Alopecurus myosuroides); test: Test A postemergence, blackgrass; details: 0 to 100 scale
How it was run: as §1

[14] = system: pigweed (Amaranthus retroflexus); test: Test A preemergence, pigweed; details: 0 to 100 scale
How it was run: as §1

[15] = system: ryegrass, Italian (Lolium multiflorum); test: Test A postemergence, Italian ryegrass; details: 0 to 100 scale
How it was run: as §1

[16] = system: foxtail, giant (Setaria faberii); test: Test A postemergence, giant foxtail; details: 0 to 100 scale
How it was run: as §1

corn (Zea mays) = test: Test A postemergence, corn; details: 0 to 100 scale
How it was run: as §1

[17] = system: ryegrass, Italian (Lolium multiflorum); test: Test A preemergence, Italian ryegrass; details: 0 to 100 scale
How it was run: as §1

[18] = system: barnyardgrass (Echinochloa crus-galli); test: Test A preemergence, barnyardgrass; details: 0 to 100 scale
How it was run: as §1

C[C@H](Nc1ncc(C(F)(F)F)c(N)n1)c1cc2ccccc2s1 [Compound 5]
10: Plant response rating, Ragweed ([2]; 500 g ai/ha) | Plant response rating, Foxtail, Giant ([8]; 500 g ai/ha) | Plant response rating, Corn (corn (Zea mays); 125 g ai/ha)
20: Plant response rating, Kochia (kochia (Kochia scoparia) [1]; 500 g ai/ha) | Plant response rating, Pigweed ([10]; 125 g ai/ha) | Plant response rating, Ryegrass, Italian ([17]; 125 g ai/ha) | Plant response rating, Ryegrass, Italian ([17]; 500 g ai/ha)
90: Plant response rating, Pigweed ([10]; 500 g ai/ha)
0: Plant response rating, Kochia (kochia (Kochia scoparia) [1]; 125 g ai/ha) | Plant response rating, Ragweed ([2]; 125 g ai/ha) | Plant response rating, Wheat ([3]; 125 g ai/ha) | Plant response rating, Wheat ([3]; 500 g ai/ha) | Plant response rating, Barnyardgrass (0 to 100 scale, 0 is no effect, 100 is complete control) [4] | Plant response rating, Ducksalad (0 to 100 scale, 0 is no effect, 100 is complete control) [5] | Plant response rating, Rice (0 to 100 scale, 0 is no effect, 100 is complete control) (rice (Oryza sativa)) | Plant response rating, Galium ([6]; 125 g ai/ha) | Plant response rating, Kochia (kochia (Kochia scoparia) [7]; 125 g ai/ha) | Plant response rating, Kochia (kochia (Kochia scoparia) [7]; 500 g ai/ha) | Plant response rating, Foxtail, Giant ([8]; 125 g ai/ha) | Plant response rating, Barnyardgrass ([9]; 125 g ai/ha) | Plant response rating, Barnyardgrass ([9]; 500 g ai/ha) | Plant response rating, Ragweed ([11]; 125 g ai/ha) | Plant response rating, Ragweed ([11]; 500 g ai/ha) | Plant response rating, Sedge, Umbrella (0 to 100 scale, 0 is no effect, 100 is complete control) [12] | Plant response rating, Blackgrass ([13]; 125 g ai/ha) | Plant response rating, Blackgrass ([13]; 500 g ai/ha) | Plant response rating, Pigweed ([14]; 125 g ai/ha) | Plant response rating, Ryegrass, Italian ([15]; 125 g ai/ha) | Plant response rating, Ryegrass, Italian ([15]; 500 g ai/ha) | Plant response rating, Foxtail, Giant ([16]; 125 g ai/ha) | Plant response rating, Foxtail, Giant ([16]; 500 g ai/ha) | Plant response rating, Corn (corn (Zea mays); 500 g ai/ha) | Plant response rating, Barnyardgrass ([18]; 125 g ai/ha) | Plant response rating, Barnyardgrass ([18]; 500 g ai/ha)
50: Plant response rating, Pigweed ([14]; 500 g ai/ha)
40: Plant response rating, Galium ([6]; 500 g ai/ha)

C[C@@H](Nc1ncc(C(F)(F)F)c(N)n1)c1cc2cc(C(F)(F)F)ccc2o1 [Compound 7]
0: Plant response rating, Kochia (kochia (Kochia scoparia) [1]; 125 g ai/ha) | Plant response rating, Kochia (kochia (Kochia scoparia) [1]; 500 g ai/ha) | Plant response rating, Ragweed ([2]; 125 g ai/ha) | Plant response rating, Ragweed ([2]; 500 g ai/ha) | Plant response rating, Wheat ([3]; 125 g ai/ha) | Plant response rating, Wheat ([3]; 500 g ai/ha) | Plant response rating, Barnyardgrass (0 to 100 scale, 0 is no effect, 100 is complete control) [4] | Plant response rating, Ducksalad (0 to 100 scale, 0 is no effect, 100 is complete control) [5] | Plant response rating, Rice (0 to 100 scale, 0 is no effect, 100 is complete control) (rice (Oryza sativa)) | Plant response rating, Galium ([6]; 125 g ai/ha) | Plant response rating, Kochia (kochia (Kochia scoparia) [7]; 125 g ai/ha) | Plant response rating, Kochia (kochia (Kochia scoparia) [7]; 500 g ai/ha) | Plant response rating, Foxtail, Giant ([8]; 125 g ai/ha) | Plant response rating, Foxtail, Giant ([8]; 500 g ai/ha) | Plant response rating, Barnyardgrass ([9]; 125 g ai/ha) | Plant response rating, Barnyardgrass ([9]; 500 g ai/ha) | Plant response rating, Ragweed ([11]; 125 g ai/ha) | Plant response rating, Ragweed ([11]; 500 g ai/ha) | Plant response rating, Sedge, Umbrella (0 to 100 scale, 0 is no effect, 100 is complete control) [12] | Plant response rating, Blackgrass ([13]; 125 g ai/ha) | Plant response rating, Blackgrass ([13]; 500 g ai/ha) | Plant response rating, Pigweed ([14]; 125 g ai/ha) | Plant response rating, Ryegrass, Italian ([15]; 125 g ai/ha) | Plant response rating, Ryegrass, Italian ([15]; 500 g ai/ha) | Plant response rating, Foxtail, Giant ([16]; 125 g ai/ha) | Plant response rating, Foxtail, Giant ([16]; 500 g ai/ha) | Plant response rating, Corn (corn (Zea mays); 125 g ai/ha) | Plant response rating, Corn (corn (Zea mays); 500 g ai/ha) | Plant response rating, Ryegrass, Italian ([17]; 125 g ai/ha) | Plant response rating, Ryegrass, Italian ([17]; 500 g ai/ha) | Plant response rating, Barnyardgrass ([18]; 125 g ai/ha) | Plant response rating, Barnyardgrass ([18]; 500 g ai/ha)
30: Plant response rating, Pigweed ([10]; 125 g ai/ha) | Plant response rating, Pigweed ([14]; 500 g ai/ha)
90: Plant response rating, Pigweed ([10]; 500 g ai/ha)
20: Plant response rating, Galium ([6]; 500 g ai/ha)

C[C@@H](Nc1ncc(C(F)(F)F)c(N)n1)c1cc2ccc(F)cc2o1 [Compound 8, N2-[(1R)-1-(6-fluoro-2-benzofuranyl)ethyl]-5-(trifluoromethyl)-2,4-pyrimidinediamine]
80%: pest or weed control at 125 g/ha (kochia (Kochia scoparia) [1]; Bassia scoparia, post-emergence, 240 h, 125 g ai/ha, read-out: Plant response rating, Kochia)
80: Plant response rating, Pigweed ([14]; 125 g ai/ha)
0%: plant injury at 125 g/ha ([3]; Triticum aestivum, post-emergence, 240 h, 125 g ai/ha, read-out: Plant response rating, Wheat) | plant injury at 500 g/ha ([3]; Triticum aestivum, post-emergence, 240 h, 500 g ai/ha, read-out: Plant response rating, Wheat) | pest or weed control at 250 g/ha ([4]; Echinochloa crus-galli, 360 h, read-out: Plant response rating, Barnyardgrass (0 to 100 scale, 0 is no effect, 100 is complete control)) | pest or weed control at 125 g/ha ([15]; Lolium multiflorum, post-emergence, 240 h, 125 g ai/ha, read-out: Plant response rating, Ryegrass, Italian) | pest or weed control at 500 g/ha ([15]; Lolium multiflorum, post-emergence, 240 h, 500 g ai/ha, read-out: Plant response rating, Ryegrass, Italian) | Corn plant response rating (crop injury, 0 = no effect, 100 = complete kill) at 125 g/ha (corn (Zea mays); Zea mays, post-emergence, 240 h, 125 g ai/ha)
40%: plant injury at 250 g/ha (rice (Oryza sativa); Oryza sativa, 360 h, read-out: Plant response rating, Rice (0 to 100 scale, 0 is no effect, 100 is complete control)) | pest or weed control at 125 g/ha ([16]; Setaria faberi, post-emergence, 240 h, 125 g ai/ha, read-out: Plant response rating, Foxtail, Giant)
20%: pest or weed control at 125 g/ha ([13]; Alopecurus myosuroides, post-emergence, 240 h, 125 g ai/ha, read-out: Plant response rating, Blackgrass) | Corn plant response rating (crop injury, 0 = no effect, 100 = complete kill) at 500 g/ha (corn (Zea mays); Zea mays, post-emergence, 240 h, 500 g ai/ha)
50%: pest or weed control at 125 g/ha ([9]; Echinochloa crus-galli, post-emergence, 240 h, 125 g ai/ha, read-out: Plant response rating, Barnyardgrass)
60%: pest or weed control at 500 g/ha ([13]; Alopecurus myosuroides, post-emergence, 240 h, 500 g ai/ha, read-out: Plant response rating, Blackgrass)
60: Plant response rating, Kochia (kochia (Kochia scoparia) [7]; 125 g ai/ha)
70%: pest or weed control at 125 g/ha ([6]; Galium, post-emergence, 240 h, 125 g ai/ha, read-out: Plant response rating, Galium)
90%: pest or weed control at 500 g/ha (kochia (Kochia scoparia) [1]; Bassia scoparia, post-emergence, 240 h, 500 g ai/ha, read-out: Plant response rating, Kochia) | pest or weed control at 125 g/ha ([2]; Ambrosia artemisiifolia, post-emergence, 240 h, 125 g ai/ha, read-out: Plant response rating, Ragweed) | pest or weed control at 500 g/ha ([2]; Ambrosia artemisiifolia, post-emergence, 240 h, 500 g ai/ha, read-out: Plant response rating, Ragweed) | pest or weed control at 500 g/ha ([6]; Galium, post-emergence, 240 h, 500 g ai/ha, read-out: Plant response rating, Galium) | pest or weed control at 500 g/ha ([9]; Echinochloa crus-galli, post-emergence, 240 h, 500 g ai/ha, read-out: Plant response rating, Barnyardgrass) | pest or weed control at 500 g/ha ([16]; Setaria faberi, post-emergence, 240 h, 500 g ai/ha, read-out: Plant response rating, Foxtail, Giant)
90: Plant response rating, Kochia (kochia (Kochia scoparia) [7]; 500 g ai/ha) | Plant response rating, Ragweed ([11]; 125 g ai/ha) | Plant response rating, Barnyardgrass ([18]; 500 g ai/ha)
50: Plant response rating, Foxtail, Giant ([8]; 125 g ai/ha)
98%: pest or weed control at 250 g/ha ([5]; Heteranthera limosa, 360 h, read-out: Plant response rating, Ducksalad (0 to 100 scale, 0 is no effect, 100 is complete control))
100%: pest or weed control at 125 g/ha ([10]; Amaranthus retroflexus, post-emergence, 240 h, 125 g ai/ha, read-out: Plant response rating, Pigweed) | pest or weed control at 500 g/ha ([10]; Amaranthus retroflexus, post-emergence, 240 h, 500 g ai/ha, read-out: Plant response rating, Pigweed) | pest or weed control at 250 g/ha ([12]; Cyperus difformis, 360 h, read-out: Plant response rating, Sedge, Umbrella (0 to 100 scale, 0 is no effect, 100 is complete control))
0: Plant response rating, Ryegrass, Italian ([17]; 125 g ai/ha) | Plant response rating, Ryegrass, Italian ([17]; 500 g ai/ha) | Plant response rating, Barnyardgrass ([18]; 125 g ai/ha)
100: Plant response rating, Foxtail, Giant ([8]; 500 g ai/ha) | Plant response rating, Ragweed ([11]; 500 g ai/ha) | Plant response rating, Pigweed ([14]; 500 g ai/ha)
